From ChEMBL document CHEMBL5620400, “Design, synthesis, antiviral evaluation, and In silico studies of acrylamides targeting nsP2 from Chikungunya virus” (Eur J Med Chem, 2023)

Key:
Polyprotein P1234 [1] = target: T1, Polyprotein P1234 (Chikungunya virus (strain S27-African prototype) (CHIKV), UniProt Q8JUX6); assay: Inhibition of CHIKV nsP2 protease activity assessed as decrease in the fluorescence signal using peptide substrate measured for 20 mins by FRET analysis
Polyprotein P1234 [2] = target: T1, Polyprotein P1234; assay: Binding affinity to CHIKV nsP2 assessed as inhibition constant by measuring fluorescence by multimode microplate reader
Polyprotein P1234 [3] = target: T1, Polyprotein P1234; assay: Binding affinity to CHIKV nsP2 assessed as equilibrium dissociation constant by isothermal titration calorimetry
Sindbis virus [4] = assay: Antiviral activity against SINV infected african green monkey Vero cells assessed as reduction of plaque formation at 100 uM measured after 48 hrs relative to control; type: functional
Sindbis virus [5] = assay: Antiviral activity against SINV infected african green monkey Vero cells assessed as reduction in viral titer measured after 24 hrs by plaque assay; type: functional, organism-based
[6] = Cytotoxicity against african green monkey Vero cells assessed as cell viability measured after 48 hrs by MTT assay; type: toxicity, cell-based; details: chlorocebus sabaeus
Chikungunya virus [7] = assay: Antiviral activity against CHIKV infected african green monkey Vero cells assessed as inhibition of virus induced cytopathic effect measured after 48 hrs; type: functional, organism-based
[8] = Selectivity index, ratio of CC50 for African green monkey Vero cells to EC50 for CHIKV; type: toxicity; details: read-out: Selectivity Index
Chikungunya virus [9] = assay: Antiviral activity against CHIKV infected african green monkey Vero cells assessed as inhibition of virus induced cytopathic effect by measuring virus positive cells at 50 uM measured after 48 hrs by flow cytometry relative to control; type: functional; set-up: scale not given: the % may be the effect or the level left
[10] = Antiviral activity against […] infected african green monkey Vero cells assessed as reduction in viral RNA copies measured per uL at 50 uM measured after 24 hrs (reference value: 1.4 x […] vRNA copy numbers/uL); type: functional

T1 sequence (Q8JUX6 536-1333 limits assumed): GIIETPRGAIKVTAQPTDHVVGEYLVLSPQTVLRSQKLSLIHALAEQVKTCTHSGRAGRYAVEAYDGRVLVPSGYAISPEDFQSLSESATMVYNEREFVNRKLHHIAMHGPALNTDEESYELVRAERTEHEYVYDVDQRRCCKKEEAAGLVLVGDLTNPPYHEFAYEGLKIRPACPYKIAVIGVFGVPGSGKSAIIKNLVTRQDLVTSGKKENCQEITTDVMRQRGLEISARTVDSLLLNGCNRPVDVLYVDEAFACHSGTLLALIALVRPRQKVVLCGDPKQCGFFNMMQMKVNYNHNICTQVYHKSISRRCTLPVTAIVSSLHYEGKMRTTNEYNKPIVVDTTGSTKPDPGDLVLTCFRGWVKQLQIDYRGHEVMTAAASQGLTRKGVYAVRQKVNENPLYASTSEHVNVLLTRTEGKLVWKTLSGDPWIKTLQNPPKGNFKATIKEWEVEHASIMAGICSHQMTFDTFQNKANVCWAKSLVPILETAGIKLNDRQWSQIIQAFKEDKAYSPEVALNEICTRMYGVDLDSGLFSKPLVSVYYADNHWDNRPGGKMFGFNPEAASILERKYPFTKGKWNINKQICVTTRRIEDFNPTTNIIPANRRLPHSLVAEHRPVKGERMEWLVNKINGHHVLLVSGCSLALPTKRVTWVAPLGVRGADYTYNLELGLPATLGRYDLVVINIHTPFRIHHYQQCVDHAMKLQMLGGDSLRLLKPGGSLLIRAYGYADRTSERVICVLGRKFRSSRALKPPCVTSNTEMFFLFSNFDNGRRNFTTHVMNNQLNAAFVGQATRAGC

**Q.** Which IC50 (Polyprotein P1234 [1]) does the source give for O=C(/C=C/c1ccc(Br)cc1)Nc1ccccc1 here?
**A.** 15.2 µM

**Q.** And the Ki (Polyprotein P1234 [2])?
**A.** 182 µM

**Q.** What about the Kd (Polyprotein P1234 [3]) of the same molecule?
**A.** 218 µM

**Q.** What about the Imax (Sindbis virus [4]) of the same molecule?
**A.** >79.9%

**Q.** And the EC50 (Sindbis virus [5])?
**A.** 3.2 µM

**Q.** What does the source list for COc1ccccc1/C=C/C(=O)Nc1ccccc1?
**A.** IC50 (Polyprotein P1234 [1]): 0.95 µM; Ki (Polyprotein P1234 [2]): 2.3 µM; Kd (Polyprotein P1234 [3]): 198 µM; Imax (Sindbis virus [4]): 58%; EC50 (Sindbis virus [5]): 73.1 µM; CC50 at 48 h [6]: > 200 µM; EC50 (Chikungunya virus [7]): 25.9 µM; selectivity ratio [8]: > 7.72

**Q.** Which IC50 (Polyprotein P1234 [1]) does the source give for O=C(/C=C/c1ccc(Cl)cc1Cl)Nc1ccccc1 here?
**A.** 20 µM

**Q.** And the Ki (Polyprotein P1234 [2])?
**A.** 92.3 µM

**Q.** What about the Kd (Polyprotein P1234 [3]) of the same molecule?
**A.** 159 µM

**Q.** And the Imax (Sindbis virus [4])?
**A.** 88.77%

**Q.** What about the EC50 (Sindbis virus [5]) of the same molecule?
**A.** < 3.12 µM

**Q.** And the CC50 at 48 h [6]?
**A.** > 200 µM

**Q.** And the EC50 (Chikungunya virus [7])?
**A.** 47.9 µM

**Q.** What about the selectivity ratio [8] of the same molecule?
**A.** > 4.17

**Q.** Which IC50 (Polyprotein P1234 [1]) does the source give for O=C(/C=C/c1ccc(C(F)(F)F)cc1)Nc1ccccc1 here?
**A.** 12.5 µM

**Q.** What about the Ki (Polyprotein P1234 [2]) of the same molecule?
**A.** 48.6 µM

**Q.** What about the Kd (Polyprotein P1234 [3]) of the same molecule?
**A.** 127 µM

**Q.** And the Imax (Sindbis virus [4])?
**A.** 95.76%

**Q.** What about the EC50 (Sindbis virus [5]) of the same molecule?
**A.** 0.95 µM

**Q.** What about the CC50 at 48 h [6] of the same molecule?
**A.** 165 µM

**Q.** What about the EC50 (Chikungunya virus [7]) of the same molecule?
**A.** 5.2 µM

**Q.** What about the selectivity ratio [8] of the same molecule?
**A.** 31.8

**Q.** And the Activity (Chikungunya virus [9])?
**A.** 35.8%

**Q.** What about the Activity [10] of the same molecule?
**A.** 720000
